Test [1] deals with Dual specificity tyrosine-phosphorylation-regulated kinase 1B (Homo sapiens) (UniProt Q9Y463). As to the kind of experiment: Inhibition of human recombinant DYRK1B at 40 nM related to control ULK1.
Test [2] has as its target Cyclin-dependent kinase-like 1 (Homo sapiens) (UniProt Q00532). Description: Inhibition of human recombinant CDKL1 at 500 nM in presence of ATP by radiometric assay relative to control.
In test [3] the target is T1, Serine/threonine-protein kinase Sgk2 (Homo sapiens) (UniProt Q9HBY8).
T1 sequence (whole entry): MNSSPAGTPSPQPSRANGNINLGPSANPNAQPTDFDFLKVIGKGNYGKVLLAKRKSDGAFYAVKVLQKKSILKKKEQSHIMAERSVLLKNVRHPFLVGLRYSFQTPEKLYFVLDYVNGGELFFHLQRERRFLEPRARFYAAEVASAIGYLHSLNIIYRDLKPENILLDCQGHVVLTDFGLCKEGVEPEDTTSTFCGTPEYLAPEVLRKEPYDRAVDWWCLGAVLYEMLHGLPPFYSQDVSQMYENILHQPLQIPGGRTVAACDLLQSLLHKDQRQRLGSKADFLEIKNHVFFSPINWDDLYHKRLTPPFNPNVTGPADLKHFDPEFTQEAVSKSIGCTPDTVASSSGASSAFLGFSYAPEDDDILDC
Description: Inhibition of human recombinant SGK2 at 15 nM in presence of ATP by radiometric assay relative to control.

The target of test [4] is T2, Dual specificity mitogen-activated protein kinase kinase 6 (Homo sapiens) (UniProt P52564).
T2 sequence (whole entry): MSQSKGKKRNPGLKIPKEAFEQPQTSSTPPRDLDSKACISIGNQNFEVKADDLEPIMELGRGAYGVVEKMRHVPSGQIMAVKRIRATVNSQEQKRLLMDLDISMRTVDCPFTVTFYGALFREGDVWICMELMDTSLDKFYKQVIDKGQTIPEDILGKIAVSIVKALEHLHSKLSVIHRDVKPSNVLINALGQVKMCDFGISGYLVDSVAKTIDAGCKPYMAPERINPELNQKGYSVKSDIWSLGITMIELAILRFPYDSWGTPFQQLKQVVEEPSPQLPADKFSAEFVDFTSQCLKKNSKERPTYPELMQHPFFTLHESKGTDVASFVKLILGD
As to the kind of experiment: Inhibition of human recombinant MAP2K6 at 15 nM in presence of ATP by radiometric assay relative to control.

For test [5], the target named is T3, Serine/threonine-protein kinase NLK (Homo sapiens) (UniProt Q9UBE8).
T3 sequence (whole entry): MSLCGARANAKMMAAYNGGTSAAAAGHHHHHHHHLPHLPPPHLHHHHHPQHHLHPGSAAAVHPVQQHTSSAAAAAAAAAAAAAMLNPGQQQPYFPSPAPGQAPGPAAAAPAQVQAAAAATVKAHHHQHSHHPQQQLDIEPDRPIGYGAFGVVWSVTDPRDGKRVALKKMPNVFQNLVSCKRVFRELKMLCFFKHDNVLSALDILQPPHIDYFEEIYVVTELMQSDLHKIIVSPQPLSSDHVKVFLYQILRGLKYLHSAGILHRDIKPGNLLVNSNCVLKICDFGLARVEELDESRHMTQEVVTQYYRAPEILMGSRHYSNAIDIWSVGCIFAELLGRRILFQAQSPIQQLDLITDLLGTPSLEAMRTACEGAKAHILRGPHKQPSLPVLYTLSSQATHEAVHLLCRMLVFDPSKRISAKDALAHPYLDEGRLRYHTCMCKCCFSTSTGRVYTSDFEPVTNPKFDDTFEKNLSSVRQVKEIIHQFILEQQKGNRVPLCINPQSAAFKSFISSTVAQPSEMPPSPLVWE
Description: Inhibition of human recombinant NLK at 15 nM related to control ULK1.

Test [6] deals with Rho-associated protein kinase 1 (Homo sapiens) (UniProt Q13464). As to the kind of experiment: Inhibition of human recombinant ROCK1 at 15 nM in presence of ATP by radiometric assay relative to control.
Sequence of Rho-associated protein kinase 1 (Homo sapiens) (Q13464 2-1354 limits assumed): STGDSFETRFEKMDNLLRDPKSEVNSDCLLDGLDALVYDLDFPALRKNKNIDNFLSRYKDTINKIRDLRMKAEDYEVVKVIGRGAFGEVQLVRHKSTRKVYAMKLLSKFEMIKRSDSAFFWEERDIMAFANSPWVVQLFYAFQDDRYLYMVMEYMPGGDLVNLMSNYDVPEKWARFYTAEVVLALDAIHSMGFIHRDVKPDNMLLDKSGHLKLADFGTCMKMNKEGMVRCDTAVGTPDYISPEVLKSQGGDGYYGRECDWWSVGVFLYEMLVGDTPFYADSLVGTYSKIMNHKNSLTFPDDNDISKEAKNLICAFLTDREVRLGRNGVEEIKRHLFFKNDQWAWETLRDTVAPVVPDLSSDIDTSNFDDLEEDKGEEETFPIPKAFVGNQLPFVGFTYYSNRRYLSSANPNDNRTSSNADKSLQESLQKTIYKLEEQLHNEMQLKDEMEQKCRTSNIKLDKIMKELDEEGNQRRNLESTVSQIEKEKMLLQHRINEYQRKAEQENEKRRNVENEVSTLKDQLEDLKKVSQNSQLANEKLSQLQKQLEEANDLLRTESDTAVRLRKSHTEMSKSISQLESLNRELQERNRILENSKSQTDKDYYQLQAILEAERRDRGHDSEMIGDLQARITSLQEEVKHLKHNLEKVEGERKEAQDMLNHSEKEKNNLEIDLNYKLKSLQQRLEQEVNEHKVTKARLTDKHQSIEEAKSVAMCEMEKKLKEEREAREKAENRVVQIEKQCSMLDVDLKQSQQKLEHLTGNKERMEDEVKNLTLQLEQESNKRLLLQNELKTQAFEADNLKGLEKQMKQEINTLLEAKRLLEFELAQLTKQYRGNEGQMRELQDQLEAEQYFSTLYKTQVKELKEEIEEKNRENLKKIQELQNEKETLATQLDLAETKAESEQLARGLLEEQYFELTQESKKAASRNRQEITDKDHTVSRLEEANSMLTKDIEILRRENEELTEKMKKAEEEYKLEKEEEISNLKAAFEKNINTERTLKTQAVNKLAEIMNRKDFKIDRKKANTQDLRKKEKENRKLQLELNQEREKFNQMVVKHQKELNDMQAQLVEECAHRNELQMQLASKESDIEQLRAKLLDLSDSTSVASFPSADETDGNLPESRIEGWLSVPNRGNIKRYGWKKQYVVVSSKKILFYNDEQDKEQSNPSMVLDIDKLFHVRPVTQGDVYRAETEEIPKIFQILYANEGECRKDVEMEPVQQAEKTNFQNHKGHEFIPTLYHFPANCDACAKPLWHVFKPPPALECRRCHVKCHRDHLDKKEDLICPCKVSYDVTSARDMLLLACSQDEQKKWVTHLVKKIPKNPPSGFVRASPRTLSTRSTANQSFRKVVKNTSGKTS
The target of test [7] is T4, Serine/threonine-protein kinase Nek1 (Homo sapiens) (UniProt Q96PY6).
T4 sequence (whole entry): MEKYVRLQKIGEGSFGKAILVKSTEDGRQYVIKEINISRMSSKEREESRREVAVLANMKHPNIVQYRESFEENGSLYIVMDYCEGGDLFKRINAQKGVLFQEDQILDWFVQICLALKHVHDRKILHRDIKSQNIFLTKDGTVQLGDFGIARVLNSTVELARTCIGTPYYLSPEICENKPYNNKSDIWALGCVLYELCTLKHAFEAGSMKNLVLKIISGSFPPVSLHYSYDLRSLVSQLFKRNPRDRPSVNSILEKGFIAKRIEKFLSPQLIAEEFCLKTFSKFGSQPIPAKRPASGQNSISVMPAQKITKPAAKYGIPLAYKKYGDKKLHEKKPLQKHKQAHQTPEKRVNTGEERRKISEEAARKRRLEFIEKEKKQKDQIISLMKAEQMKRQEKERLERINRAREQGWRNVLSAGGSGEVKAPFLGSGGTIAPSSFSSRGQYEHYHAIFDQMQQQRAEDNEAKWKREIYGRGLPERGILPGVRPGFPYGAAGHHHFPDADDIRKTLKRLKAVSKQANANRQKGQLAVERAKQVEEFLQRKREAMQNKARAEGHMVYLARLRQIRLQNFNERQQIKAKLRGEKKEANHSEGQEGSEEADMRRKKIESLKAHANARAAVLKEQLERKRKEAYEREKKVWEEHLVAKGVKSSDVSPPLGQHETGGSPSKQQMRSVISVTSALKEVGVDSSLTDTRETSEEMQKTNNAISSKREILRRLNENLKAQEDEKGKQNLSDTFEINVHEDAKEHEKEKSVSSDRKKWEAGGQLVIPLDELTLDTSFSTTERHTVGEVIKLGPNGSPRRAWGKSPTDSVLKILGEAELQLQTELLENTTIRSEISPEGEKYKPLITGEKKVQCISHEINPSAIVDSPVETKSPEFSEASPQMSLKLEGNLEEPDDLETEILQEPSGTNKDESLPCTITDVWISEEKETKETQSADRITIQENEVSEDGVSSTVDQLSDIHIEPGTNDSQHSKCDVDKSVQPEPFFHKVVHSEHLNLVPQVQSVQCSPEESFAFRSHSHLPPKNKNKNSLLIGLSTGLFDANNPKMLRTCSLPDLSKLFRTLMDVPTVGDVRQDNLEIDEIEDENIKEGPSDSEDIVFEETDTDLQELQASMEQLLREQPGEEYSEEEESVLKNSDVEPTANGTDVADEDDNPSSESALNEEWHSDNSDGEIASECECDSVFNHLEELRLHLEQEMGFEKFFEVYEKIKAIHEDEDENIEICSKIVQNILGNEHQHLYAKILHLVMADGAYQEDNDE
Description: Inhibition of human recombinant NEK1 at 15 nM in presence of ATP by radiometric assay relative to control.

One may read the inhibition as the percentage by which the read-out fell short of the control.

Sequence of Dual specificity tyrosine-phosphorylation-regulated kinase 1B (Homo sapiens) (Q9Y463 whole entry, looked up): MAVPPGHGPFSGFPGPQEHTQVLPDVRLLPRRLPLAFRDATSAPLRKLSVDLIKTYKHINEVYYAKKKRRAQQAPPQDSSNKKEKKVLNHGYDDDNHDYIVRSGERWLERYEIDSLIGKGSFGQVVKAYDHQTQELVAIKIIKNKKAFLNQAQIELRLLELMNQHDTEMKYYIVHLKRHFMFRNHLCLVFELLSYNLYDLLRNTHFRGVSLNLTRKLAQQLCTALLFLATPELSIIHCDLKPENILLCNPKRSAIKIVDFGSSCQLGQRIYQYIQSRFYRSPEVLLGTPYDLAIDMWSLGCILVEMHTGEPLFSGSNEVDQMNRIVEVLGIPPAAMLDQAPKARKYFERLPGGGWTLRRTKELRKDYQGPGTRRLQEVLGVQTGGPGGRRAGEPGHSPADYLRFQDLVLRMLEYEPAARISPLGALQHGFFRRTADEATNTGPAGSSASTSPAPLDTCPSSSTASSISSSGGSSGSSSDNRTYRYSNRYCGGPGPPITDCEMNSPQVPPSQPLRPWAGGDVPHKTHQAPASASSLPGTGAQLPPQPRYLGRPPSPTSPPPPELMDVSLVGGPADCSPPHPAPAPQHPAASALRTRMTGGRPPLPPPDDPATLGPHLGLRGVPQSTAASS
Sequence of Cyclin-dependent kinase-like 1 (Homo sapiens) (Q00532 whole entry): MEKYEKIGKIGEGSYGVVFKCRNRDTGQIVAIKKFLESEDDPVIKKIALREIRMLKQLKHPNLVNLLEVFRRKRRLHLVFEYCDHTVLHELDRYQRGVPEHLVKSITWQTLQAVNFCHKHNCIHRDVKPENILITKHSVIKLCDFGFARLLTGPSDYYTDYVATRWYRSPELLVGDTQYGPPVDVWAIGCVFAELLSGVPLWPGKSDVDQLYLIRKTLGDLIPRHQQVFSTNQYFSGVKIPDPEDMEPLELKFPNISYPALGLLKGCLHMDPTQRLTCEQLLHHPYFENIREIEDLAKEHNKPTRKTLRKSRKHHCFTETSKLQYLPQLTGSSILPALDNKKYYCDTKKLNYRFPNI

`O=C(N[C@@H](C1CC1)C(F)(F)F)c1cc(-c2cnn3cc(-c4ccc(F)cc4)cnc23)cs1`: in test [1], the fold change (FC) worked out at 0.42.
For `CNC(=O)c1ccccc1Oc1nc(Nc2cc(OC)c(OC)c(OC)c2)ncc1Br`, the inhibition in test [2] amounted to 0%.
Consider `CC(C)[C@H](NC(=O)c1cc(-c2cnn3cc(-c4ccc(OCCN5CCCCC5)cc4)cnc23)cs1)C(F)(F)F`, for which the inhibition in test [3] came to 0%; in test [4], 5%; in test [6], 8%; in test [7] it was 3%. In test [5], the fold change (FC) is 0.1.

Values taken from ChEMBL document CHEMBL5653631, “A Potent and Selective ULK1 Inhibitor Suppresses Autophagy and Sensitizes Cancer Cells to Nutrient Stress” (iScience, 2018).
